US8247170B2, “Detection of penicillin tolerance in Group B Streptococcus: single nucleotide polymorphisms in penicillin binding protein 4” (priority 2008, dated 2012)

System: GBS clinical isolates and laboratory strains
Assay: Macrobroth penicillin tolerance assay
Assay type: cell-based, Group B Streptococcus
Conditions: for 10xMIC, regrowth O.D.600: Penicillin G 10×MIC90 48 h; for 10xMIC, regrowth O.D.600 / 30xMIC, regrowth O.D.600 / 100xMIC, regrowth O.D.600 / 300xMIC, regrowth O.D.600: then 24 h drug-free; for 30xMIC, regrowth O.D.600: Penicillin G 30×MIC90 48 h; for 100xMIC, regrowth O.D.600: Penicillin G 100×MIC90 48 h; for 300xMIC, regrowth O.D.600: Penicillin G 300×MIC90 48 h
Description: Using this modified penicillin tolerance assay, tolerant strains from the GBS clinical isolates can be more efficiently identified. In this macrobroth culture format, 25 ml THB broth GBS cultures (containing clinical isolates) were grown to an early exponential growth phase (˜0.2 OD600). Cell cultures (6 ml) were collected and divided into 4 culture tubes. […] Cell cultures were shaken at 150 rpm in order to maintain cells in suspension for proper growth. Subcultures (1/20 dilution) of cells were put into fresh THB containing […] Penase (i.e., 100 μl of Penase 10,000 U stock into 4 ml THB culture). Subcultures were allowed to grow for 24 hours at 37° C. Cell growth was monitored by OD (see Example 2).
(I) Bacterial Strains and Culture Conditions. GBS strains A909 (serotype IA), 515 (serotype IA), NEM316 (serotype III), COHI (serotype III), 2603V/R (serotype V) and O90R (non-typable) were used in this study. E. coli Top10 cells were used for the recombination experiments. GBS was cultured in Todd Hewitt broth (THB) or Tryptic Soy 5% sheep blood (TS) media and E. coli in Luria-broth (LB) medium or agar. Antibiotics were used at the following concentrations: for GBS—penicillin G (MIC90 0.06 μg ml^−1), ampicillin (MIC90 0.12 μg ml^−1), vancomycin (MIC90 2 μg ml^−1), cefazolin (MIC90 1 μg ml^−1) and chloramphenicol (5 μg ml^−1); for E. coli—ampicillin (50 μg ml^−1) and chloramphenicol (5 μg ml^−1). Both GBS and E. coli cultures were grown at 37° C. (II) Tolerance Using the MBC:MIC Ratio Method. Three GBS laboratory strains (i.e., A909, NEM316, and O90R) were cultured overnight for 18 h at 37° C. in THB. Subcultures in THB were subsequently grown to exponential phase (OD600˜0.3; i.e. 5×10^5 cfu/ml) at 37° C. Cell cultures were then exposed to different concentrations of antibiotics (Penicillin G, Ampicillin, Cefozolin or Vancomycin). […] Cell cultures were dispersed every 18 h before OD600 was measured to determine the lowest concentration of antibiotic with 90% growth inhibition (MIC90). Antibiotic treated cells (8 μl) from each well were re-suspended into PBS (100 μl) and plated (54 μl) on TS agar plates and allowed to grow for an additional 24 h at 37° C. Cell count was performed to determine the lowest concentration of antibiotic with 90% killing of original inoculums (MBC90). (III) Penicillin Killing and Regrowth Tolerance Assay by Microbroth Dilution. Three GBS laboratory strains (i.e., A909, NEM316, and O90R) were cultured overnight for 18 h at 37° C. in THB. Subcultures in THB were subsequently grown to exponential phase (OD600˜0.3) at 37° C. Cell cultures were then exposed to different concentrations of Penicillin G (Sigma, St. Louis, Mo.). […] Cell cultures were dispersed. A 1:20 dilution of cells was re-plated into new wells containing fresh THB with 500 U Penase (to degrade residual penicillin). Cell cultures were allowed to re-grow for an additional 24 h at 37° C. before the OD600 was measured. (IV) Measuring Cell Viability by Determining ATP Concentration. GBS strains were cultured for 18 h at 37° C. in THB. These cells were inoculated into fresh THB and subsequently allowed to grow to exponential phase (OD600 0.25-0.3) at 37° C. One ml of each culture was centrifuged at 5,000×g for 4 min. The cell pellet was re-suspended in ATP-free water. Cellular ATP was extracted using trichloroacetic acid (TCA) (5%) for 2 min and subsequently neutralized with Tris-EDTA-0.1M NaOAc, pH 7.75 to 10×TCA volume. The initial (in.) cellular ATP concentration ([ATP]) was measured using the ENLITEN (Promega) luciferase based reaction kit. THB cultures were then treated with 100×MIC90 Penicillin G for 22 h. The experimental (exp.) cellular ATP was extracted and the concentration was measured as stated above. Based on the calculations ([ATP] exp.)/([ATP] in./O.D. in.), differences in viability were equated with the change in [ATP]. (V) Measuring Penicillin Induced Lysis. Three GBS laboratory strains (A909, NEM316, and O90R) were cultured for 18 h at 37° C. in THB. […]

[1] = GBS laboratory strain 2603V/R (V)
[2] = GBS laboratory strain A909 (Ia)
[3] = GBS laboratory strain COH1 (III)
[4] = GBS laboratory strain NEM316 (III)
[5] = GBS laboratory strain O90R (NT)

Q: How did the “% of clinical isolates PE-PT” value (51 clinical isolates) turn out when `CC1(C)S[C@@H]2[C@H](NC(=O)Cc3ccccc3)C(=O)N2[C@H]1C(=O)O` [Penicillin G] was run?
A: 23.5%

Q: And the “% of clinical isolates PT (penicillin tolerant)” value (51 clinical isolates)?
A: 15.7%

Q: What about the “% of clinical isolates S (penicillin susceptible)” value (51 clinical isolates) of the same compound?
A: 60.8%

Q: What about the Phenotype (GBS laboratory strain 515 (Ia)) of the same compound?
A: Penicillin Tolerance (PT)

Q: And the “10xMIC, regrowth O.D.600” value (GBS laboratory strain 515 (Ia))?
A: ++ (“++” indicates an O.D.600 of 0.251 to 0.750)

Q: What about the “30xMIC, regrowth O.D.600” value (GBS laboratory strain 515 (Ia)) of the same compound?
A: +++ (“+++” indicates an O.D.600 of 0.751 to 1.500)

Q: What about the “100xMIC, regrowth O.D.600” value (GBS laboratory strain 515 (Ia)) of the same compound?
A: ++ (“++” indicates an O.D.600 of 0.251 to 0.750)

Q: What about the “300xMIC, regrowth O.D.600” value (GBS laboratory strain 515 (Ia)) of the same compound?
A: ++ (“++” indicates an O.D.600 of 0.251 to 0.750)

Q: What about the Phenotype [1] of the same compound?
A: Susceptible (S)

Q: What about the “10xMIC, regrowth O.D.600” value [1] of the same compound?
A: −− (“−−” indicates an O.D.600 of 0.001 to 0.099)

Q: And the “30xMIC, regrowth O.D.600” value [1]?
A: −− (“−−” indicates an O.D.600 of 0.001 to 0.099)

Q: And the “100xMIC, regrowth O.D.600” value [1]?
A: −− (“−−” indicates an O.D.600 of 0.001 to 0.099)

Q: And the “300xMIC, regrowth O.D.600” value [1]?
A: −− (“−−” indicates an O.D.600 of 0.001 to 0.099)

Q: What about the Phenotype [2] of the same compound?
A: Susceptible (S)

Q: And the “10xMIC, regrowth O.D.600” value [2]?
A: −− (“−−” indicates an O.D.600 of 0.001 to 0.099)

Q: And the “30xMIC, regrowth O.D.600” value [2]?
A: −− (“−−” indicates an O.D.600 of 0.001 to 0.099)

Q: And the “100xMIC, regrowth O.D.600” value [2]?
A: −− (“−−” indicates an O.D.600 of 0.001 to 0.099)

Q: And the “300xMIC, regrowth O.D.600” value [2]?
A: −− (“−−” indicates an O.D.600 of 0.001 to 0.099)

Q: And the Phenotype [3]?
A: Paradoxical Effect-Penicillin Tolerance

Q: What about the “10xMIC, regrowth O.D.600” value [3] of the same compound?
A: −− (“−−” indicates an O.D.600 of 0.001 to 0.099)

Q: And the “30xMIC, regrowth O.D.600” value [3]?
A: +++ (“+++” indicates an O.D.600 of 0.751 to 1.500)

Q: And the “100xMIC, regrowth O.D.600” value [3]?
A: +++ (“+++” indicates an O.D.600 of 0.751 to 1.500)

Q: And the “300xMIC, regrowth O.D.600” value [3]?
A: ++ (“++” indicates an O.D.600 of 0.251 to 0.750)

Q: What about the Phenotype [4] of the same compound?
A: Paradoxical Effect-Penicillin Tolerance

Q: What about the “10xMIC, regrowth O.D.600” value [4] of the same compound?
A: +++ (“+++” indicates an O.D.600 of 0.751 to 1.500)

Q: What about the “30xMIC, regrowth O.D.600” value [4] of the same compound?
A: −− (“−−” indicates an O.D.600 of 0.001 to 0.099)

Q: What about the “100xMIC, regrowth O.D.600” value [4] of the same compound?
A: ++ (“++” indicates an O.D.600 of 0.251 to 0.750)

Q: What about the “300xMIC, regrowth O.D.600” value [4] of the same compound?
A: +++ (“+++” indicates an O.D.600 of 0.751 to 1.500)

Q: And the Phenotype [5]?
A: Penicillin Tolerance (PT)

Q: What about the “10xMIC, regrowth O.D.600” value [5] of the same compound?
A: +++ (“+++” indicates an O.D.600 of 0.751 to 1.500)

Q: And the “30xMIC, regrowth O.D.600” value [5]?
A: +++ (“+++” indicates an O.D.600 of 0.751 to 1.500)

Q: What about the “100xMIC, regrowth O.D.600” value [5] of the same compound?
A: +++ (“+++” indicates an O.D.600 of 0.751 to 1.500)

Q: What about the “300xMIC, regrowth O.D.600” value [5] of the same compound?
A: +++ (“+++” indicates an O.D.600 of 0.751 to 1.500)

Q: What about the “10xMIC, regrowth O.D.600” value (GBS strain 12 (III)) of the same compound?
A: −− (“−−” indicates an O.D.600 of 0.001 to 0.099)

Q: What about the “30xMIC, regrowth O.D.600” value (GBS strain 12 (III)) of the same compound?
A: −− (“−−” indicates an O.D.600 of 0.001 to 0.099)

Q: What about the “100xMIC, regrowth O.D.600” value (GBS strain 12 (III)) of the same compound?
A: −− (“−−” indicates an O.D.600 of 0.001 to 0.099)

Q: What about the “300xMIC, regrowth O.D.600” value (GBS strain 12 (III)) of the same compound?
A: −− (“−−” indicates an O.D.600 of 0.001 to 0.099)

Q: And the “10xMIC, regrowth O.D.600” value (GBS strain 18 (NT))?
A: −− (“−−” indicates an O.D.600 of 0.001 to 0.099)

Q: What about the “30xMIC, regrowth O.D.600” value (GBS strain 18 (NT)) of the same compound?
A: −− (“−−” indicates an O.D.600 of 0.001 to 0.099)

Q: What about the “100xMIC, regrowth O.D.600” value (GBS strain 18 (NT)) of the same compound?
A: −− (“−−” indicates an O.D.600 of 0.001 to 0.099)

Q: And the “300xMIC, regrowth O.D.600” value (GBS strain 18 (NT))?
A: −− (“−−” indicates an O.D.600 of 0.001 to 0.099)

Q: And the “10xMIC, regrowth O.D.600” value (GBS strain 21 (NT))?
A: −− (“−−” indicates an O.D.600 of 0.001 to 0.099)

Q: What about the “30xMIC, regrowth O.D.600” value (GBS strain 21 (NT)) of the same compound?
A: −− (“−−” indicates an O.D.600 of 0.001 to 0.099)

Q: And the “100xMIC, regrowth O.D.600” value (GBS strain 21 (NT))?
A: −− (“−−” indicates an O.D.600 of 0.001 to 0.099)

Q: And the “300xMIC, regrowth O.D.600” value (GBS strain 21 (NT))?
A: −− (“−−” indicates an O.D.600 of 0.001 to 0.099)

Q: What about the “10xMIC, regrowth O.D.600” value (GBS strain 22 (V)) of the same compound?
A: ++ (“++” indicates an O.D.600 of 0.251 to 0.750)

Q: And the “30xMIC, regrowth O.D.600” value (GBS strain 22 (V))?
A: ++ (“++” indicates an O.D.600 of 0.251 to 0.750)

Q: What about the “100xMIC, regrowth O.D.600” value (GBS strain 22 (V)) of the same compound?
A: ++ (“++” indicates an O.D.600 of 0.251 to 0.750)

Q: What about the “300xMIC, regrowth O.D.600” value (GBS strain 22 (V)) of the same compound?
A: ++ (“++” indicates an O.D.600 of 0.251 to 0.750)

Q: What about the “10xMIC, regrowth O.D.600” value (GBS strain 26 (NT)) of the same compound?
A: −− (“−−” indicates an O.D.600 of 0.001 to 0.099)

Q: And the “30xMIC, regrowth O.D.600” value (GBS strain 26 (NT))?
A: −− (“−−” indicates an O.D.600 of 0.001 to 0.099)

Q: What about the “100xMIC, regrowth O.D.600” value (GBS strain 26 (NT)) of the same compound?
A: −− (“−−” indicates an O.D.600 of 0.001 to 0.099)

Q: And the “300xMIC, regrowth O.D.600” value (GBS strain 26 (NT))?
A: −− (“−−” indicates an O.D.600 of 0.001 to 0.099)

Q: And the “10xMIC, regrowth O.D.600” value (GBS strain 46 (Ib))?
A: −− (“−−” indicates an O.D.600 of 0.001 to 0.099)

Q: And the “30xMIC, regrowth O.D.600” value (GBS strain 46 (Ib))?
A: −− (“−−” indicates an O.D.600 of 0.001 to 0.099)

Q: What about the “100xMIC, regrowth O.D.600” value (GBS strain 46 (Ib)) of the same compound?
A: −− (“−−” indicates an O.D.600 of 0.001 to 0.099)

Q: And the “300xMIC, regrowth O.D.600” value (GBS strain 46 (Ib))?
A: −− (“−−” indicates an O.D.600 of 0.001 to 0.099)

Q: And the “10xMIC, regrowth O.D.600” value (GBS strain 47 (III))?
A: −− (“−−” indicates an O.D.600 of 0.001 to 0.099)

Q: And the “30xMIC, regrowth O.D.600” value (GBS strain 47 (III))?
A: −− (“−−” indicates an O.D.600 of 0.001 to 0.099)
